Results reported in US20120232062A1, “AZAINDAZOLES TO TREAT FLAVIVIRIDAE VIRUS INFECTION” (EIGER BIOPHARMACEUTICALS, INC., priority 2009, published 2012).

Experiments:
[1] = Liver microsome stability, human; type: in vitro ADME; conditions: for liver stability predicted by in vitro PK profiles: human vs rat liver, in words
From the text: (§1) Metabolic stability assays are designed to measure the stability of a test compound in a variety of assay matrices from human and animal species. From a metabolism perspective, a drug would be relatively stable, have a small first-pass effect, and maintain an effective concentration in blood for a reasonable period of time. A microsomal preparation from the liver contains all CYP isozymes and other membrane-bound drug metabolizing enzymes which are responsible for the metabolism for the majority of drugs in humans. Metabolic stability in liver microsomes can determine half-life (T1/2) and intrinsic clearance (Clint). The determination of Clint may be useful to determine whether metabolism is the major elimination pathway when it is compared to total body clearance in vivo. For high metabolic stability in liver microsomes: […] Human, Sprague Dawley rat, and CD-1 mouse liver microsome samples were purchased from BD Gentest. An in vitro metabolic stability assay suitable for use in predicting first pass metabolism of the compounds useful in the methods of the invention is described in this example. […] 6 mM NADPH in 0.1 M K-phosphate buffer is prepared by dissolving 25.1 mg of NADPH tetrasodium salt in 5 mL of K-phosphate buffer. […] The plate is pre-incubated at 37° C. for 10 minutes. 15 μL of NADPH stock solution (6 mM) is added to the wells designated for Time 60 and timed. At 30 min, 15 min, and 5 min, 15 μL of NADPH stock solution (6 mM) is added to the wells. At the end of incubation, 135 μL of ACN containing IS is added to all the wells (60 min, 30 min, 15 min, 5 min and 0 min). Then 15 μL of NADPH stock solution (6 mM) is added to the wells designated as Time 0.

[2] = Liver microsome stability, mouse; type: in vitro ADME, CD-1 mouse
From the text: as §1

[3] = Caco-2 permeability testing; type: in vitro ADME, human; conditions: human; for Papp A→B at 90 min, 10 µM: Caco-2, pH 7.4, Caco-2, A-B, read-out: Permeability (second figure of Efflux/permeability), Papp (A-B); for Papp B→A at 90 min, 10 µM: Caco-2, pH 7.4, Caco-2, B-A, read-out: Efflux (first figure of Efflux/permeability), Papp (B-A)
From the text: Intestinal epithelium permeability is a critical characteristic that determines the rate and extent of human absorption and affects bioavailability of a drug candidate. Poor intestinal permeability leads to limited absorption. Generally, higher absorption is preferred. The Caco-2 cell line is a human colon adeno-carcinoma cell line that resembles the epithelial lining of the human small intestine. Several transport proteins that are expressed in human intestinal epithelium are also expressed in the Caco-2 cell model. Some transporter proteins are efflux systems which mediate the secretion of compounds from inside the cell back to the apical lumen (representative of the intestinal lumen), limiting overall absorption. In a permeability assay, the apparent permeability coefficient is measured between the apical to basolateral sides of a cell monolayer, Papp (A-B), and the basolateral to the apical side, Papp (B-A). Papp (A-B)<2×10^−6 cm/s is predictive of low permeability to the basolateral side, 2×10^−6 cm/s<Papp (A-B)<20×10^−6 cm/s is predictive of medium permeability, and Papp (A-B)>20×10^−6 cm/s is predictive of high permeability. In the B-A permeability assay, Papp (B-A) is measured and compounds evaluated for efflux potential. Together, these assay results are reported as a ratio of Papp (B-A) to Papp (A-B). Papp (B-A)/Papp (A-B)>3 are likely to be transported by one of the efflux systems, and have poor absorption. Papp (B-A)/Papp (A-B)<3 are likely to show reasonable intestinal absorption. An in vitro drug absorption assay suitable for use in predicting intestinal absorption of the compounds useful in the methods of the invention is described in this example. The embodiments of this assay described in this example were developed by Shanghai ChemPartner Co., Ltd., a corporation of China with its principal office located at 720 Cailun Road, Building No. 3, Shanghai 201203, China.
Caco-2 (ATCC, catalog No. HTB-37™) cells are cultured in growth medium (MEM+10% FBS+1% NEAA). The growth medium is prepared by adding 50 mL FBS and 5 mL NEAA to 445 mL of MEM or by adjusting the final volume according to actual needs. Trypsin-EDTA (Invitrogen, Cat #25200-072) is also used.
Hanks Balanced Salt Solution (HBSS, Invitrogen, Cat #14025-092) with 25 mM HEPES, pH 7.4, HBSS buffer with 0.2% DMSO (50 μL DMSO into 25 ml HBSS buffer), and HBSS buffer with 0.4% DMSO (100 μL DMSO into 25 ml HBSS buffer) are used.
10 mM stock solutions of a compound is prepared in DMSO and Lucifer Yellow in assay buffer using the formula (Actual Weight/Molecular Weight)/mL solvent=10 mM. Erythromycin, Metoprolol, and Atenolol are used as reference compounds. Donor solutions (10 μM for compounds and 5 μM for Lucifer Yellow) are prepared. For A-B, 4 μL of 10 mM compound stock solution and 2 μL of 10 mM Lucifer Yellow stock solution are loaded into 4 mL of HBSS buffer, and centrifuged (5 min, 4000 rpm) to precipitate undissolved particles. Supernatants are collected for compound dosing. For B-A, 4 μL (compounds) of 10 mM compound stock solution is added to 4 mL HBSS buffer with 0.2% DMSO, and centrifuged (5 min, 4000 rpm) to precipitate undissolved particles. Supernatants are collected for compound dosing.
Receiver solutions are prepared. For A-B, the solution is HBSS buffer with 0.4% DMSO. For B-A, 2 μL of 10 mM Lucifer Yellow stock solution is added to 4 mL of HBSS buffer with 0.2% DMSO. Compound solutions are prepared for standard curve (3 μM/1 μM/0.2 μM/0.04 μM/0.01 μM/0.005 μM):
1× solution: 3 μL of 20× solution (0.1-60 μM)+57 μL 0.4% DMSO HBSS+60 μL acetonitrile (ACN) with internal standard (IS, 200 ng/mL Osalmid). The assay was performed as described below
Stock cultures are maintained in MEM+10% FBS+1% NEAA, grown in 75 cm^2 tissue culture treated flasks and split (passed) 2 times weekly to maintain desired confluence. For maintenance passage, trypsinized cells are routinely distributed into new flasks at a standard passage ratio of 1:4. […]

[4] = Liver microsome stability, rat; type: in vitro ADME, Sprague Dawley rat
From the text: as §1

| SMILES | human liver microsome (HLM, % parent remaining) ([1]; after 15 min) [% parent remaining] | human liver microsome (HLM, % parent remaining) ([1]; after 30 min) [% parent remaining] | human liver microsome (HLM, % parent remaining) ([1]; after 60 min) [% parent remaining] | mouse liver microsome (MLM), % parent remaining ([2]; after 15 min) [% parent remaining] | mouse liver microsome (MLM), % parent remaining ([2]; after 30 min) [% parent remaining] | mouse liver microsome (MLM), % parent remaining ([2]; after 60 min) [% parent remaining] | Papp A→B at 90 min, 10 µM [3] [×10⁻⁶ cm/s] | Papp B→A at 90 min, 10 µM [3] [×10⁻⁶ cm/s] | rat liver microsome (RLM), % parent remaining ([4]; after 15 min) [% parent remaining] | rat liver microsome (RLM), % parent remaining ([4]; after 30 min) [% parent remaining] | rat liver microsome (RLM), % parent remaining ([4]; after 60 min) [% parent remaining] | liver stability predicted by in vitro PK profiles [1] | efflux ratio at 90 min, 10 µM ([3]; pH 7.4, Caco-2, Papp (B-A)/Papp (A-B), read-out: Efflux/Permeability ratio (desired <3)) |
| --- | --- | --- | --- | --- | --- | --- | --- | --- | --- | --- | --- | --- | --- |
| Cn1nc(C(=O)NC2CCNCC2)c2ccc(N3CCCCCC3)nc21.O=C(O)C(F)(F)F.O=C(O)C(F)(F)F [compound 697] | 96 | 109 | 108 | 85 | 74 | 44 | 5.5 | 48 | 69 | 42 | 13 | – | – |
| CCC(CC)Oc1ccc2c(C(=O)NC3CCNCC3)n[nH]c2n1 [compound 726] | 86 | 81 | 65 | 99 | 96 | 86 | 3.5 | 41 | 83 | 69 | 53 | – | – |
| Cn1nc(C(=O)NC2CCN(CCN3CCCCC3)CC2)c2ccc(N3CCCCCC3)nc21 [compound 1047] | 78 | 62 | 34 | 56 | 29 | 12 | 10.5 | 7.6 | 44 | 18 | 10 | – | – |
| Clc1ccc(Cn2nc(COCCCN3CCCCC3)c3ccc(N4CCCCCC4)nc32)cc1 [compound 749] | – | – | – | – | – | – | 0.44 | 0.52 | – | – | – | – | – |
| Cn1nc(C(=O)NC2CCN(CCN3CCCCC3)CC2)c2ccc(N3CCCCCC3)nc21 [EBP1047] | 78 | 62 | 34 | 56 | 29 | 12 | – | – | 44 | 18 | 10 | higher stability in human liver vs rat liver | – |
| Cn1nc(C(=O)NC2CCN(CCN3CCCC3)CC2)c2ccc(N3CCCCCC3)nc21 [EBP1597] | 81 | 74 | 57 | 67 | 32 | 14 | – | – | 57 | 24 | 15 | higher stability in human liver vs rat liver | 0.8 |
| Cn1nc(CCCN2CCCC2)c2ccc(N3CCCCCCC3)nc21 [compound 1171] | 67 | 44 | 23 | 22 | 3 | 1 | 17 | 11 | 1.2 | 0.5 | 0.3 | – | – |
| CCC(CC)Oc1ccc2c(COCC3CCCNC3)nn(Cc3ccc(Cl)cc3)c2n1.O=C(O)C(F)(F)F (stereo not drawn) [compound 755] | – | – | – | – | – | – | 0.4 | 0.2 | – | – | – | – | – |
| O=C(NC1CCNCC1)c1nn(C(=O)C2CCCCC2)c2nc(N3CCCCCC3)ccc12.O=C(O)C(F)(F)F.O=C(O)C(F)(F)F.O=C(O)C(F)(F)F [compound 989] | – | – | – | – | – | – | 5 | 3 | – | – | – | – | – |
| Cn1nc(C(=O)NC2CCN(CCN3CCCC3)CC2)c2ccc(N3CCCCCC3)nc21 [compound 1597] | 81 | 74 | 58 | 67 | 32 | 14 | 9.2 | 6.5 | 57 | 25 | 14 | – | – |
| Cn1nc(C(=O)NC2CCN(CC3CCCCC3)CC2)c2ccc(N3CCCCCCC3)nc21 [compound 1062] | – | – | – | – | – | – | 1.7 | 0.6 | – | – | – | – | – |
